PMC12903969, “Discovery of a Novel and Potent Kir4.1 Inhibitor as a Safe and Rapid‐Onset Antidepressant Agent in Mice” (Advanced Science, 2025)
Read-outs that look alike come from different tables or passages of the source.

Tests used:
Kir4.1 = molecular target: T1, Kir4.1 (Homo sapiens, UniProt P78508); assay: Whole-cell patch clamp, Kir4.1 currents in transfected CHO-K1 cells; format: cell-based; conditions: for inhibition at 10 µM: CHO-K1, 10 μM; for inhibition at 1 µM: CHO-K1, 1 μM; for IC50: whole-cell patch clamp
T1 construct: host or cells: CHO-K1
T1 sequence (P78508 1-379): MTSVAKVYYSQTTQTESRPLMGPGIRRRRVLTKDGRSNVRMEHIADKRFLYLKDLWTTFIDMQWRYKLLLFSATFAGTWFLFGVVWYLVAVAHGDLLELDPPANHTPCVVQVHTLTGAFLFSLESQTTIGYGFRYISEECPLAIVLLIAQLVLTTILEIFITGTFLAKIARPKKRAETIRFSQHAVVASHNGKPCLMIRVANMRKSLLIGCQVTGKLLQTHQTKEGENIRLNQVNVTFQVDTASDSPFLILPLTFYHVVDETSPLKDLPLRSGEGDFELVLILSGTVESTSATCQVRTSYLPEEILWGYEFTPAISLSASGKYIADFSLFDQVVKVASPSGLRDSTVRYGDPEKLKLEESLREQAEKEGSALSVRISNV
Protocol: Plasmids encoding WT human potassium channels Kir1.1, Kir2.1, Kir2.2, Kir4.1, and Kir4.2 were obtained from the Beijing Genomics Institute. All point mutations were constructed using the QuickChange II Site‐Directed Mutagenesis Kit (Stratagene) and subsequently verified by sequencing.
CHO‐K1 cells were maintained in DMEM/F12 growth medium containing 10% fetal bovine serum. Plasmids encoding the target genes (3600 ng) and enhanced green fluorescent protein (400 ng) were cotransfected into cells using Lipofectamine 2000 (Invitrogen) in accordance with the manufacturer's instructions. Cells were seeded onto poly‐d‐lysine (PDL)‐coated glass coverslips 1 h prior to electrophysiological recordings. All cells were cultured under standard conditions of 5% CO2 at 37 °C.
Whole‐cell patch‐clamp recordings were obtained either in transiently transfected CHO‐K1 cells or in primary cultured astrocytes at room temperature using standard patch‐clamp techniques with an Axopatch‐700B amplifier (Axon Instruments). The signals were filtered at 2 kHz and sampled at 20 kHz using the Digidata 1440A interface (Axon Instruments). The resistance of borosilicate glass pipettes was typically 2–4 MΩ when filled with the internal solution. Drug application was facilitated using a BPS perfusion system (ALA Scientific Instruments). Macroscopic currents generated by expressed potassium channels were recorded under the voltage‐clamp conditions with an internal pipette solution composed of (in mM): 140 KCl, 5 NaCl, 1 CaCl2, 1 MgCl2, 10 HEPES, and 10 EGTA, pH 7.2 adjusted with KOH. The external solution contained (in mM): 140 NaCl, 5 KCl, 2 CaCl2, 1 MgCl2, 10 glucose, and 10 HEPES, pH 7.4 adjusted with NaOH. Currents were elicited with a hyperpolarized voltage at −120 mV from the holding potential of −80 mV, followed by a ramp voltage depolarizing to +50 mV. Astrocytic resting membrane potentials were recorded under current‐clamp conditions (I = 0 pA) using standard internal and external solutions, determined immediately after achieving whole‐cell mode.

[1] = tested on: MDA-MB-468 breast cancer cells; assay: Cytotoxicity test (CCK-8); format: cell-based
Protocol: Cytotoxicity of all the tested compounds was determined using the cell counting kit‐8 (CCK‐8) assay kit (Beyotime, Shanghai, China). Briefly, MDA‐MB‐468 was cultured in L15 medium and plated in 96‐well plates at a density of 12,000 cells per well for 24 h at 37 °C in a 5% CO2 incubator. The tested compounds were dissolved in DMSO and diluted with culture medium (DMSO final concentration < 0.4%). Then the cells were treated with compounds (0.41, 1.23, 3.70, 11.11, 33.33, 100.00 µM) for 48 h. After treatments, removal of the supernatant liquor, 100 µL of new media diluted CCK‐8 solution (10% CCK‐8) was added into each well and incubated at 37 °C for 2 h. The absorbance of the mixture was directly measured at 450 nm. The results are presented as a percentage of the control.

[2] = MDA-MB-468 breast cancer cells, read-out: IC50 ± SD (μM) for MDA-MB-468 Inhibition
[3] = +50 mV, read-out: Kir4.1 Inhibition ± SD (%) at 10 μM, +50 mV
[4] = -120 mV, read-out: Kir4.1 Inhibition ± SD (%) at 10 μM, -120 mV
[5] = Homo sapiens, MDA-MB-468, MDA-MB-468 breast cancer cells, read-out: IC50 ± SD (μM) for MDA-MB-468 Inhibition
[6] = +50 mV, read-out: Kir4.1 Inhibition ± SD (%) at 1 μM, +50 mV
[7] = -120 mV, read-out: Kir4.1 Inhibition ± SD (%) at 1 μM, -120 mV
[8] = CHO-K1, 0.5 μM, +50 mV, read-out: Kir4.1 Inhibition ± SD (%) at 0.5 μM, +50 mV
[9] = CHO-K1, 0.5 μM, -120 mV, read-out: Kir4.1 Inhibition ± SD (%) at 0.5 μM, -120 mV

Row | Molecule | inhibition at 10 µM (Kir4.1; [3]) | inhibition at 10 µM (Kir4.1; [4]) | inhibition at 1 µM (Kir4.1; [6]) | inhibition at 1 µM (Kir4.1; [7]) | IC50 [1, 5] | also measured
1 | N^4-(1H-indol-5-yl)-N^2-(3-morpholinopropyl)pyrimidine-2,4-diamine [JX3207] | – | – | – | – | – | Kir4.1 Inhibition ± SD (%) at 1 μM, +50 mV (Kir4.1; +50 mV): 30.53 ± 6.87%; Kir4.1 Inhibition ± SD (%) at 1 μM, -120 mV (Kir4.1; -120 mV): 27.52 ± 8.17%; Kir4.1 Inhibition ± SD (%) at 10 μM, +50 mV (Kir4.1; +50 mV): 93.00 ± 1.73%; Kir4.1 Inhibition ± SD (%) at 10 μM, -120 mV (Kir4.1; -120 mV): 92.47 ± 0.40%; IC50 [1, 2]: 12.3 ± 1.32 µM
2 | Nc1ccnc(NCCCN2CCOCC2)n1 [JX3201, N^2-(3-morpholinopropyl)pyrimidine-2,4-diamine] | 3.02 ± 1.37% | 4.04 ± 7.66% | – | – | > 50 µM | –
3 | CC1(C)c2ccccc2-c2cc(Nc3ccnc(NCCCN4CCOCC4)n3)ccc21 [JX3210, N^4-(9,9-dimethyl-9H-fluoren-3-yl)-N^2-(3-morpholinopropyl)pyrimidine-2,4-diamine] | 93.2 ± 3.42% | 98.69 ± 0.66% | 62 ± 4.2% | 42.7 ± 2.34% | 2.66 ± 0.51 µM | –
4 | c1ccc2c(c1)oc1ccc(Nc3ccnc(NCCCN4CCSCC4)n3)cc12 [JX3243, N^4-(dibenzo[b,d]furan-2-yl)-N^2-(3-thiomorpholinopropyl)pyrimidine-2,4-diamine] | 98.74 ± 0.36% | 98.6 ± 0.56% | -1.39 ± 1.64% | 0.17 ± 1.63% | 7.11 ± 0.62 µM | –
5 | c1ccc2c(c1)oc1ccc(Nc3ccnc(NCCCN4CCCCC4)n3)cc12 [JX3244, N^4-(dibenzo[b,d]furan-2-yl)-N^2-(3-(piperidin-1-yl)propyl)pyrimidine-2,4-diamine] | 98.66 ± 0.25% | 97 ± 1.09% | 85.4 ± 3.98% | 74.5 ± 6.63% | 6.86 ± 0.23 µM | inhibition at 0.5 µM (Kir4.1; [8]): 74.9 ± 2.12%; inhibition at 0.5 µM (Kir4.1; [9]): 63 ± 5.95%; inhibition at 0.5 µM (Kir4.1; CHO-K1, 0.5 µM, read-out: Kir4.1 inhibition at 0.5 µM): > 60%
6 | c1ccc2c(c1)oc1ccc(NC34C[C@@H]5C[C@@H](CC(NCCCN6CCOCC6)(C5)C3)C4)cc12 [JX3227, (1s,3r,5R,7S)-N^1-(dibenzo[b,d]furan-2-yl)-N^3-(3-morpholinopropyl)adamantane-1,3-diamine] | – | – | – | – | – | Kir4.1 Inhibition ± SD (%) at 1 μM, +50 mV (Kir4.1; +50 mV): 9.02 ± 5.70%; Kir4.1 Inhibition ± SD (%) at 1 μM, -120 mV (Kir4.1; -120 mV): 7.11 ± 1.17%; Kir4.1 Inhibition ± SD (%) at 10 μM, +50 mV (Kir4.1; +50 mV): 88.04 ± 4.11%; Kir4.1 Inhibition ± SD (%) at 10 μM, -120 mV (Kir4.1; -120 mV): 64.42 ± 3.05%; IC50 [1, 2]: > 50 µM
7 | c1ccc2c(c1)oc1ccc(N[C@H]3CC[C@@H](NCCCN4CCOCC4)CC3)cc12 [JX3226, (1s,4s)-N^1-(dibenzo[b,d]furan-2-yl)-N^4-(3-morpholinopropyl)cyclohexane-1,4-diamine] | – | – | – | – | – | Kir4.1 Inhibition ± SD (%) at 1 μM, +50 mV (Kir4.1; +50 mV): 3.35 ± 4.46%; Kir4.1 Inhibition ± SD (%) at 1 μM, -120 mV (Kir4.1; -120 mV): 6.91 ± 6.13%; Kir4.1 Inhibition ± SD (%) at 10 μM, +50 mV (Kir4.1; +50 mV): 94.03 ± 1.98%; Kir4.1 Inhibition ± SD (%) at 10 μM, -120 mV (Kir4.1; -120 mV): 86.98 ± 0.69%; IC50 [1, 2]: 19.5 ± 1.64 µM
8 | c1ccc2c(c1)oc1ccc(Nc3cncc(NCCCN4CCOCC4)n3)cc12 [JX3223, N^2-(dibenzo[b,d]furan-2-yl)-N^6-(3-morpholinopropyl)pyrazine-2,6-diamine] | – | – | – | – | 23 ± 3.41 µM | Kir4.1 Inhibition ± SD (%) at 10 μM, +50 mV (Kir4.1; +50 mV, 10 µM): 7.01 ± 4.11%; Kir4.1 Inhibition ± SD (%) at 10 μM, -120 mV (Kir4.1; -120 mV): 6.62 ± 0.29%

The next lines start with results.

Row | inhibition at 10 µM (Kir4.1; [3]) | inhibition at 10 µM (Kir4.1; [4]) | inhibition at 1 µM (Kir4.1; [6]) | inhibition at 1 µM (Kir4.1; [7]) | Molecule | IC50 [1, 5] | also measured
9 | 85.9 ± 3.9% | 86.4 ± 4.85% | -0.09 ± 6.09% | 5.58 ± 4.14% | c1ccc2nc3ccc(Nc4ccnc(NCCCN5CCOCC5)n4)cc3cc2c1 [JX3209, N^4-(acridin-2-yl)-N^2-(3-morpholinopropyl)pyrimidine-2,4-diamine] | 38.4 ± 4.21 µM | –
10 | 97.4 ± 1.14% | 88.3 ± 4.59% | 44 ± 9.96% | 30.4 ± 8.64% | c1ccc2c(c1)oc1ccc(Nc3ccnc(NCCCN4CCCOCC4)n3)cc12 [JX3250, N^2-(3-(1,4-oxazepan-4-yl)propyl)-N^4-(dibenzo[b,d]furan-2-yl)pyrimidine-2,4-diamine] | 12.2 ± 0.87 µM | –
11 | 96.6 ± 1.38% | 97 ± 1.86% | 76 ± 1.81% | 64.6 ± 5.93% | CCn1c2ccccc2c2cc(Nc3ccnc(NCCCN4CCOCC4)n3)ccc21 [EHop-016, N ^4‐(9‐ethyl‐9H‐carbazole‐3‐yl)‐N ^2‐(3‐morpholinopropyl)pyrimidine‐2,4‐diamine, reference compound] | – | inhibition at 0.5 µM (Kir4.1; [8]): 17.2 ± 2.53%; inhibition at 0.5 µM (Kir4.1; [9]): 19 ± 3.75%; IC50 (Kir4.1; CHO cells transiently expressing Kir4.1, +50 mV, read-out: IC50 for Kir4.1 inhibition (+50 mV, outward currents)): 0.61 µM; IC50 (Kir4.1; CHO cells transiently expressing Kir4.1, −120 mV, read-out: IC50 for Kir4.1 inhibition (−120 mV, inward currents)): 0.74 µM; IC50 ([1]; Homo sapiens, MDA-MB-468, 48 h, CCK-8, 48 h, read-out: IC50 against MDA-MB-468 breast cancer cells): 5.98 ± 0.67 µM
12 | 92.2 ± 1.15% | 97.2 ± 1.69% | 4.34 ± 8.43% | 2.58 ± 3.95% | CC(CNc1nccc(Nc2ccc3oc4ccccc4c3c2)n1)CN1CCOCC1 (centres unmarked) [JX3233, N^4-(dibenzo[b,d]furan-2-yl)-N^2-(2-methyl-3-morpholinopropyl)pyrimidine-2,4-diamine] | 10.44 ± 0.01 µM | –
13 | 98.5 ± 0.23% | 93.1 ± 2.15% | 27 ± 12.3% | 2.21 ± 3.14% | CCN(CC)CCCNc1nccc(Nc2ccc3oc4ccccc4c3c2)n1 [JX3238, N^4-(dibenzo[b,d]furan-2-yl)-N^2-(3-(diethylamino)propyl)pyrimidine-2,4-diamine] | 10.3 ± 3.8 µM | –
14 | 97.46 ± 0.59% | 81.5 ± 2.87% | 21.9 ± 8.36% | 11.5 ± 6.63% | c1ccc2c(c1)oc1ccc(Nc3ccnc(NCCCN4CCN(C5COC5)CC4)n3)cc12 [JX3248, N^4-(dibenzo[b,d]furan-2-yl)-N^2-(3-(4-(oxetan-3-yl)piperazin-1-yl)propyl)pyrimidine-2,4-diamine] | > 50 µM | –
15 | 84.2 ± 2.69% | 59.5 ± 3.66% | 4.09 ± 2.08% | 1.97 ± 2.44% | O=C(NCCCNc1nccc(Nc2ccc3oc4ccccc4c3c2)n1)N1CCOCC1 [JX3241, N-(3-((4-(dibenzo[b,d]furan-2-ylamino)pyrimidin-2-yl)amino)propyl)morpholine-4-carboxamide] | 21.1 ± 1.53 µM | –
16 | 97.46 ± 0.83% | 97.35 ± 0.65% | 90 ± 1.44% | 84.7 ± 4.13% | CC1(C)C2CN(CCCNc3nccc(Nc4ccc5oc6ccccc6c5c4)n3)CC21 (centres unmarked) [JX3240, N^4-(dibenzo[b,d]furan-2-yl)-N^2-(3-(6,6-dimethyl-3-azabicyclo[3.1.0]hexan-3-yl)propyl)pyrimidine-2,4-diamine] | 5.37 ± 0.22 µM | inhibition at 0.5 µM (Kir4.1; [8]): -0.92 ± 3.58%; inhibition at 0.5 µM (Kir4.1; [9]): -0.29 ± 1.05%
17 | 98.49 ± 0.04% | 94.9 ± 1.88% | 92.4 ± 1.44% | 82.2 ± 2.24% | c1ccc2c(c1)oc1ccc(Nc3ccnc(NCCCN4CCCCCC4)n3)cc12 [JX3249, N^2-(3-(azepan-1-yl)propyl)-N^4-(dibenzo[b,d]furan-2-yl)pyrimidine-2,4-diamine] | 5.1 ± 0.21 µM | inhibition at 0.5 µM (Kir4.1; [8]): 56 ± 5.59%; inhibition at 0.5 µM (Kir4.1; [9]): 46.4 ± 8.18%
